Test results as given in PMC5454592, “Pharmacological and Toxicological Properties of the Potent Oral γ-Secretase Modulator BPN-15606” (The Journal of Pharmacology and Experimental Therapeutics, 2017).
Where two headings read alike, the source gives them in different places.

Tests used:
γ-secretase = γ-secretase (Homo sapiens, UniProt P49768); assay: SHSY5Y-APP cell-based MSD Aβ triplex screening assay; parameters: endogenous in cells; host or cells: human SH-SY5Y neuroblastoma cells stably overexpressing human APP751 wild-type
Description: All Aβ assays, including the anti-Aβ immunoprecipitation/matrix-assisted laser desorption/ionization time of flight, were carried out as described previously ([Wagner et al., 2014]).

[1] = Toxicokinetics in rats (7-day po); format: in vivo; settings: male, Sprague-Dawley, rat, plasma; for MRT last: day 1, read-out: mean residence time to the last time point
Description: Data were subjected to noncompartmental analysis using WinNonlin Phoenix Model 200 (for extravascular administration) or Model 201 (for i.v. bolus administration) and the sparse sampling feature; a uniform weighting factor was applied to each data set. Time to maximum plasma concentration (Tmax) and maximum plasma concentration (Cmax) values were determined directly from the data. Area under the plasma concentration–time curve to the last time point (AUClast) values were calculated using the log/linear trapezoidal (i.v. dose) or linear up/log down trapezoidal (po dose). Values were calculated using the plasma data from composite groups. The dose administered was input to the program as mg/kg, and as a result no additional corrections for individual body weights of the animals were necessary. The following parameters and constants were determined for the i.v. and po groups: observed Cmax, Tmax, AUClast, area under the plasma concentration–time curve extrapolated to infinity, terminal phase elimination half-life, and mean residence time to the last time point. The volume of distribution at steady state and clearance were calculated using the i.v. group data. Bioavailability after oral administration was calculated using the AUClast values for both the i.v. and po groups.
(§1) The objectives of this toxicity study were to determine maximum tolerated dose (MTD), characterize the potential toxicity, and calculate toxicokinetic parameters of BPN-15606 in adult male Sprague–Dawley rats (8–10 weeks of age) following daily po dose administration for 7 consecutive days, and to evaluate its potential to damage chromosomes or cause mitotic spindle abnormalities in vivo, as measured by the incidence of micronucleus formation in RNA-containing erythrocytes (bone marrow micronucleus assay). An overview of the study design is presented in Supplemental Table 8. Male rats were administered BPN-15606 po for 7 consecutive days at 30, 100, or 300 mg/kg (groups 2, 3, and 4). A control group (group 1) was given vehicle, 15% Labrasol/85% sterile water, at an equivalent dose volume (10 ml/kg). A 375 mg/kg dose (group 5) was included for determination of day 1 plasma drug levels. Clinical observations were recorded twice daily.

in vivo [2] = settings: rat
Description: as §1
All rats in groups 1, 2, and 3 (0, 30, and 100 mg/kg, respectively) survived until their scheduled day 8 sacrifice, and all tissues specified for histologic evaluation were collected. None of the group 4 (300 mg/kg) animals survived the 7-day dosing period: three were sacrificed in moribund condition, and two were found dead. Necropsy examinations were performed on all rats, but, for group 4 animals, tissues for histopathologic examination were collected only from those rats that were sacrificed in moribund condition. Histopathology assessment was conducted on all tissues collected from all animals in groups 1 and 3, and all tissues collected from group 4 animals euthanized moribund. From group 2 rats, the following tissues were examined histopathologically: duodenum; jejunum; ileum; liver; lung; pancreas; spleen; stomach; and thymus, which were evaluated based on findings at the higher dose levels. When present, grossly altered tissues were examined histopathologically from all group 1, 2, and 3 rats, and from moribund sacrifice group 4 rats. Microscopic data were recorded, and a four-step grading system (minimal, mild, moderate, and marked) was used to define gradable changes. Terminology for data capture was consistent with International Harmonization of Nomenclature and Diagnostic Criteria as promulgated by the Society of Toxicologic Pathology.

in vivo [3] = settings: cynomolgus monkey
Description: The objectives of this study were to determine the MTD of BPN-15606, characterize potential toxicity, and calculate toxicokinetic parameters of BPN-15606 in adult male and female cynomolgus macaques following daily po dose administration at a near-MTD dose of BPN-15606 for 7 consecutive days. In the dose escalation phase to establish the MTD (phase A), male and female cynomolgus macaques (n = 2/sex) were administered single doses of BPN-15606 at 3, 10, 30, 100, and 300 mg/kg, with 2 to 4 days between each dose escalation (Fig. 10). […] The plasma drug concentrations at the approximate Tmax increased in a dose-dependent manner. […] Comprehensive evaluation of clinical pathology parameters (clinical chemistry, hematology), gross pathology, and histopathologic parameters was carried out at SRI International, according to their standardized protocols. Tissues examined histopathologically included the following: liver, lung, stomach, duodenum, colon, spleen, pancreas, thymus, heart, brain, and kidney.

Aβ42 and Aβ40 levels = assay: Acute single-dose pharmacodynamics in mice; format: in vivo, C57BL/6J mice; settings: single oral dose 25 mg/kg, C57BL/6 mice
Description: Male C57BL/6J mice (n = 5 per group) were administered a single dose of either vehicle (80% polyethylene glycol 400 v/v; 20% sterile water v/v and 0.1% Tween 20 v/v) or BPN-15606 (25 mg/kg) by po and sacrificed at 0.5, 1, 2, 4, 8, 12, and 24 hours following the dosing. Plasma and brain extracts were prepared, and Aβ peptides were quantitated as described previously ([Kounnas et al., 2010]). Statistical analysis was performed as described above for the repeat dosing studies.

[4] = Metabolite identification in cryopreserved hepatocytes; format: in vitro ADME, mouse, rat, dog, monkey, human; settings: hepatocyte cultures from five species
Description: Test compound (1 μM) was incubated at 37°C for 4 hours with cryopreserved mouse, rat, dog, monkey, or human hepatocytes. Identification of metabolites’ molecular weights and relative abundance of the specific metabolites was based on high performance liquid chromatography (HPLC)/MS/MS peak areas, and structural characterization of metabolites was accomplished by LC/MS/MS/Q-Trap.

**Q.** Which AβTotal (γ-secretase; SHSY5Y-APP cells) does the source give for `COc1nc(-c2cc(C)c(N[C@@H](C)c3ccc(F)cc3)nn2)ccc1-n1cnc(C)c1` [BPN-15606, (S)-N-(1-(4-fluorophenyl)ethyl)-6-(6-methoxy-5-(4-methyl-1H-imidazol-1-yl)pyridin-2-yl)-4-methylpyridazin-3-amine] here?
**A.** No change

**Q.** What about the IC50 (γ-secretase; human SHSY5Y neuroblastoma cells stably overexpressing human APP751 wild-type, read-out: Aβ42 IC50) of the same molecule?
**A.** 7 nM

**Q.** What about the Tmax ([1]; 30 mg/kg, rats, 30 mg/kg, day 1, read-out: mean Tmax) of the same molecule?
**A.** 13.3 h

**Q.** And the Tmax ([1]; 30 mg/kg, rats, 30 mg/kg, day 7, read-out: mean Tmax)?
**A.** 6.7 h

**Q.** And the Tmax ([1]; rats po, depending on dose, read-out: Tmax for individual animals)?
**A.** 4 to 24 h

**Q.** And the MRT last ([1]; rats, 30 mg/kg)?
**A.** 9.1 h

**Q.** And the MRT last ([1]; rats, 100 mg/kg)?
**A.** 13.6 h

**Q.** And the Tmax ([1]; rats, 100 and 300 dose groups, day 1, read-out: mean Tmax (time to the peak plasma drug level))?
**A.** 18.7 h

**Q.** And the MTD at 7 days (in vivo [2]; male, Sprague-Dawley)?
**A.** ~100 mg/kg

**Q.** What about the mortality (in vivo [2]; male, Sprague-Dawley, 300 mg/kg, 7 days) of the same molecule?
**A.** either found dead or sacrificed in moribund condition on day 3 or 4

**Q.** What about the NOEL (in vivo [2]; male, Sprague-Dawley, 7 days) of the same molecule?
**A.** ≥ 30 mg/kg

**Q.** And the MTD at 7 days (in vivo [2]; male, Sprague-Dawley, po)?
**A.** ~100 mg/kg/day

**Q.** What about the “no-observed-effect level (NOEL)” value (in vivo [2]; male, Sprague-Dawley, po, 7 days) of the same molecule?
**A.** 30 mg/kg/day

**Q.** What about the “absolute number and percent of reticulocytes, of the control values” (in vivo [2]; 100 mg/kg) of the same molecule?
**A.** about 20%

**Q.** And the “decrease in mean corpuscular hemoglobin” value (in vivo [2]; 100 mg/kg)?
**A.** 6.9%

**Q.** And the “increase in RBC” value (in vivo [2]; 100 mg/kg)?
**A.** 10.5%

**Q.** And the increase in hemoglobin (in vivo [2]; 100 mg/kg)?
**A.** 10.9%

**Q.** And the liver histopathology (in vivo [2]; 300 mg/kg)?
**A.** Hepatocyte basophilia, hypertrophy, and lipidosis

**Q.** And the clinical observations (in vivo [2]; po, 30 mg/kg)?
**A.** appeared normal throughout the treatment period

**Q.** And the NOAEL (in vivo [3]; both sexes)?
**A.** 30 mg/kg

**Q.** And the MTD (in vivo [3]; both sexes, MTD after a single-dose administration)?
**A.** 300 mg/kg

**Q.** And the “NOEL after a single dose” value (in vivo [3]; both)?
**A.** 30 mg/kg

**Q.** What about the “clinical signs after single doses” value (in vivo [3]; both) of the same molecule?
**A.** limited to emesis in the 100 and 300 mg/kg groups

**Q.** And the “clinical pathology parameters after single-dose administration” value (in vivo [3])?
**A.** no apparent changes

**Q.** What about the “clinical signs on repeat dosing” value (in vivo [3]; po, 300 mg/kg) of the same molecule?
**A.** emesis, reduced appetite, and reduced stool

**Q.** What about the “gross findings at necropsy” value (in vivo [3]; po, 300 mg/kg) of the same molecule?
**A.** no gross findings at necropsy

**Q.** And the hepatic histopathological findings (in vivo [3]; po, 300 mg/kg)?
**A.** minimal sinusoidal leukocytosis in two male monkeys and moderate focal fatty infiltration in one female monkey

**Q.** What about the renal histopathological findings (in vivo [3]; po, 300 mg/kg) of the same molecule?
**A.** mild to moderate proximal tubular necrosis, casts, and dilation with cortical and medullary subacute inflammation

**Q.** What about the “duration of effect on brain and plasma Aβ42 and Aβ40 levels” value (Aβ42 and Aβ40 levels) of the same molecule?
**A.** ≥ 24 h

**Q.** What about the “onset of effect on brain and plasma Aβ42 and Aβ40 levels” value (Aβ42 and Aβ40 levels) of the same molecule?
**A.** 30 to 60 min

**Q.** What about the uniquely human metabolites [4] of the same molecule?
**A.** absence of any unique human metabolites

**Q.** What about the uniquely human metabolites ([4]; listed as BPN-15605) of the same molecule?
**A.** no uniquely human metabolites identified
